According to patent US20050053921A1, “Systems for screening anti-hepatitis drugs” (priority 2003, published 2005):

Columns and labels:
NS3/4A protease = NS3/4A protease (Hepatitis C virus genotype 1a, UniProt P27958); assay: cell-based; set-up: species or system HCV type 1a
Experimental: One of the cloned cell lines was further infected with the lentiviral vector encoding NS 3/4A gene. After zeocin selection (250 μg/ml) for 3 to 4 weeks, one zoscine-resistant clone was obtained. This cell line was confirmed by Western blot to express both NS3/4A protease and EG(D4AB)SEAP, and therefore designated as 293P-EG(Δ4AB)SEAP-NS3/4A.
More specifically, 293P-EG(Δ4AB)SEAP-NS3/4A cells were seeded in 96-well plates (1.5×10^4 cells per well) and cultured at 37° C. overnight. […] Two days later, the culture medium in each well was replaced with fresh phenol red-free DMEM/10% FBS containing the same concentration of drugs. After another day, the culture medium was collected and the SEAP activity was measured using a Phospha-Light assay kit (Tropix, Foster City, Calif., USA) according to manufacturer's instruction.

[1] = test system: 293P-EG(Δ4AB)SEAP-NS3/4A cells; assay: MTS cellular toxicity assay; assay type: cell-based; settings: concentration up to 10 μM
[2] = biological target: T1, NS3/4A protease in Ava5-EG(Δ4AB)SEAP cells (Hepatitis C virus genotype 1b, UniProt Q9WMX2); assay: SEAP activity in medium of stable Ava5-EG(Δ4AB)SEAP cells; assay type: cell-based, HCV; settings: for extracellular SEAP activity: TPCK 0-40 μM or IFN-γ 0-100 I.U./ml
T1 construct: Ava5 cells expressed endogenous NS3/4A protease; endogenous in cells; host or cells: Ava5 cells (Huh-7 carrying an HCV subgenomic replicon)
Experimental: (§1) After the cotransfection, culture media and cell lysates were harvested at 12-hour intervals. The SEAP activity in the culture medium and the β-galactosidase activity in the cell lysates were measured using Phospha-Light and Galacto-Star assay kits (Tropix, Foster, Calif., USA), respectively. The respective chemiluminescent intensities were detected by a Top Counter Microplate Scintillation and Luminescence Counter (Packard, Meriden, Conn., USA). The intensities reflected the relative activities of SEAP and […]. In these experiments, the β-gal activity was used to normalize transfection efficiency according standard techniques. Meanwhile, fluorescence emitted from the green fluorescent protein was examined using a fluorescence microscope (Nikon DIAPHOT 300).
Huh-7 or Ava5 cells were seeded in 24-well plates at a density of 2×10^4 cells per well. After incubation at 37° C. overnight, the cells were transduced with serial dilutions of lentiviral particles in the presence of 6 μg/ml polybrene (Sigma, St. Louis, Mo., USA) in the manner described above. After incubation for 24 hours, the virus-containing medium was replaced by a fresh medium and the cells were incubated for another 2 days. The cells were then selected in the presence of 10 μg/ml of blasticidin for 3-4 weeks.
One blasticidin-resistant Huh-7 clone and two blasticidin-resistant Ava5 clones were obtained. Cell lines thus produced were designated as Huh-7-EG(Δ4AB)SEAP and […], respectively. The cells were then examined for expression of EG(Δ4AB)SEAP and the amount NS3 protein by Western blot analysis using anti-EGFP antibody and anti-NS3 antibody, respectively. […] They also expressed free EGFP, resulting from the cleavage of the EG(Δ4AB)SEAP by NS3/4A protease. In naive Huh-7 and Ava5 cells, neither free EGFP nor NS3 could be detected.
(§2) Ava5-EG(Δ4AB)SEAP clone 1 was further treated by IFN-α (0-50 units/ml) in the manner described above. They, the cells were examined for cellular NS3/4A protein and HCV RNA levels by western blot and dot blot, respectively. The dot blot was conducted as follows: RNA was extracted using TRIZOL reagent (Invitrogen). Three micrograms of RNA was dissolved in 100 μl of TE buffer (10 mM Tris-HCl, 1 mM EDTA, pH 7.5) and 60 μl of 20×SSC, and 40 μl of 37% formaldehyde stock solution were added. The samples were incubated at 60° C. for 15 min and then applied to pre-wetted nylon membrane using an S&S Minifold® I dot-blot device (Schleicher & Schuell GmbH, Relliehausen, Germany). Each well was washed twice with 6×SSC. Bound RNA was immobilized onto the membrane by UV-cross linking (Stratagene, La Jolla, Calif., USA) under the autocross-link condition, then hybridization and counting were conducted as described (Lee et al., 2003. Anal. Biochem.316, 162-170a). The membrane was probed with NS5B gene fragment of HCV labeled with […] by rediprime II random primer labeling system (Amersham Biosciences, Buckinghamshire, England). The blots were visualized by autoradiography and intensities of the blots were measured by densitometry (UVP GDS-8000 BioImaging System, Upland, Calif., USA).
The just-described cell line was used to examined several other known anti-HCV compounds, such as an NS3/4A inhibitor, N-tosyl-1-phenylalanine chloromethyl ketone (TPCK) (Berdichevsky et al., 2003, J. Virol. Methods 107, 245-255.), and IFN-γ (Frese et al., 2002, Hepatology 35, 694-703.). […]

[3] = test system: endogenous NS3/4A protease in Ava5 cells; assay: SEAP activity in medium of Ava5 cells transiently transfected with EG(Δ4AB)SEAP; assay type: cell-based, HCV; settings: 100 IU/ml
Experimental: as §1
Ava5 cells expressed endogenous NS3/4A protease. […] Western blotting was also conducted in the same manner.

[4] = test system: HCV subgenomic replicons (HCV RNA); assay: HCV RNA level by Northern hybridization in Ava5 cells expressing EG(Δ4AB)SEAP; assay type: cell-based; settings: 100 IU/ml
HCV RNA = HCV RNA level by dot blot in Ava5-EG(Δ4AB)SEAP clone 1; assay type: cell-based; settings: 0-50 units/ml
Experimental: as §2

NS3/4A protein = assay: Cellular NS3/4A protein level by western blot in Ava5-EG(Δ4AB)SEAP clone 1; assay type: cell-based, HCV; settings: 0-50 units/ml
Experimental: as §2

HCV NS3 protease = settings: 100 IU/ml, Ava5 cells, especially after 3 days of treatment
Experimental: They were maintained in DMEM/10% FBS/1 mg/ml G418 (Geneticin) and DMEM/10% FBS, respectively. Ava5 cells expressed endogenous NS3/4A protease. The above-described dual-reporter construct was transient transfected into the cells in the same manner descried above except that FuGENE 6 (Roche), instead of LipofectamineTM was used. Western blotting was also conducted in the same manner.
Ava5 cells expressing EG(Δ4AB)SEAP were then tested for the ability to screen for HCV protease inhibitors. More specifically, the cells were treated with IFN-α (Schering-Plough Corp., Kenilworth, N.J., USA) and examined for the SEAP activity in their medium in the manner described above.
The protein level of NS3 protease was also determined by standard techniques.

[5] = Ava5-EG(Δ4AB)SEAP cells, 72 hours

T1 sequence (Q9WMX2 1027-1657, stated change not applied): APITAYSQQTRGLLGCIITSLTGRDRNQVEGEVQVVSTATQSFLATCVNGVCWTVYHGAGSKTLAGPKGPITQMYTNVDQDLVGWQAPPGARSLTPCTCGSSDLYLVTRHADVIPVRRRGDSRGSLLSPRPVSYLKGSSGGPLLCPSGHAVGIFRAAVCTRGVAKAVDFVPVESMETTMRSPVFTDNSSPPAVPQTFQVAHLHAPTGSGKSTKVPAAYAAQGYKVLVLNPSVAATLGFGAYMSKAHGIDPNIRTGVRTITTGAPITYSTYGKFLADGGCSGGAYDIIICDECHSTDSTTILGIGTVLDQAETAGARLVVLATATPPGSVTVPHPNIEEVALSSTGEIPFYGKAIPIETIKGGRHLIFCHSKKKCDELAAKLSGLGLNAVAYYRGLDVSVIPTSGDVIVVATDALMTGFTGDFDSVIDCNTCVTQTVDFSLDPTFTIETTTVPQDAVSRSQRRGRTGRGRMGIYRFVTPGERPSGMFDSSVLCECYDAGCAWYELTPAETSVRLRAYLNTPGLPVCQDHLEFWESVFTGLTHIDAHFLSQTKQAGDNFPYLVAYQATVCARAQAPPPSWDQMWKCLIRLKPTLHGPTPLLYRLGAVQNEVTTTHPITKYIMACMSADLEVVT
T1 sequence (Q9WMX2 1658-1711, stated change not applied): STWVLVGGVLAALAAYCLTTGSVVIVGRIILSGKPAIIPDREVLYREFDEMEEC
endogenous NS3/4A protease in Ava5 cells, sequence (Q9WMX2 1027-1657): as the sequence (Q9WMX2 1027-1657, stated change not applied) above
NS3/4A protein, sequence (Q9WMX2 1027-1657): as the sequence (Q9WMX2 1027-1657, stated change not applied) above
HCV NS3 protease, sequence (Q9WMX2 1027-1657): as the sequence (Q9WMX2 1027-1657, stated change not applied) above
NS3/4A protease, sequence (P27958 1027-1657): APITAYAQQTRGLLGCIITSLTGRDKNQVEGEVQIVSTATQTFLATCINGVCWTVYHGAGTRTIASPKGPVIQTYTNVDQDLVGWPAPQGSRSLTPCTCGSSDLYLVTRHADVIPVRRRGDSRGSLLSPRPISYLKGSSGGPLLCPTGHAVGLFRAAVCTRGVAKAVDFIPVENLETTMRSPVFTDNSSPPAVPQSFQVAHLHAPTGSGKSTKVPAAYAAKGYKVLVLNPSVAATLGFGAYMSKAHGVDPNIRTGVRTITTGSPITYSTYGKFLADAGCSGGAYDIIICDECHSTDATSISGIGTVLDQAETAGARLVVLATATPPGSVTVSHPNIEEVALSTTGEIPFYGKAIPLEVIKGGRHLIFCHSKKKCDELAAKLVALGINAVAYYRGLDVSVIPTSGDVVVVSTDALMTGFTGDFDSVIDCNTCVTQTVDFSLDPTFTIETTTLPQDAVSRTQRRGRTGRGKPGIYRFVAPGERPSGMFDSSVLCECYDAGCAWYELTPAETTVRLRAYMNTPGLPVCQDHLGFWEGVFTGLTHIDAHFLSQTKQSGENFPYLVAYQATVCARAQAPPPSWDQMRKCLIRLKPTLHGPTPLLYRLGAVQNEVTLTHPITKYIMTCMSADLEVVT
NS3/4A protease, sequence (P27958 1658-1711): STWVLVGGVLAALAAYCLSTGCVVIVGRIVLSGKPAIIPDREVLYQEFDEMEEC

With `COc1ccc2c(O[C@@H]3C[C@H]4C(=O)N[C@]5(C(=O)O)C[C@H]5/C=C\CCCCC[C@H](NC(=O)OC5CCCC5)C(=O)N4C3)cc(-c3csc(NC(C)C)n3)nc2c1` [BILN-2061] the EC50 (NS3/4A protease) was roughly 2 nM and the “cellular toxicity as measured by MTS assay” value [1] was “did not cause detectable cellular toxicity”.

With `Cc1ccc(S(=O)(=O)N[C@@H](Cc2ccccc2)C(=O)CCl)cc1` [TPCK, N-tosyl-1-phenylalanine chloromethyl ketone, reference compound] the “extracellular SEAP activity” value [2, 5] was “dose-dependent decrease” and the “suppression of HCV replication” value ([2]; at 0.2 μM, Ava5-EG(Δ4AB)SEAP cells, 72 hours) was “more than 50%”.

IFN-α was tested, and the “SEAP activity in the culture medium” value [3] was “decreased”, the “RNA levels of gadph (housekeeping gene)” value [4] was “remained the same” and the “HCV RNA levels” value ([4]; especially after 3 days of treatment) was “declined”. The “SEAP activity in the culture medium” value ([2]; 0-50 units/ml, Ava5-EG(Δ4AB)SEAP clone 1) was “decreased”, the “HCV RNA level (dot blot)” value (HCV RNA) was “decreased” and the “cellular NS3/4A protein level (western blot)” value (NS3/4A protein) was “decreased”. The “HCV NS3 protease levels” value (HCV NS3 protease) was “declined”.

B1: IFN-γ: IFN-γ, known anti-HCV compound (Frese et al., 2002) (protein, UniProt P01579 24-161, looked up)
Interferon gamma: QDPYVKEAENLKKYFNAGHSDVADNGTLFLGILKNWKEESDRKIMQSQIVSFYFKLFKNFKDDQSIQKSVETIKEDMNVKFFNSNKKKRDDFEKLTNYSVTDLNVQRKAIHELIQVMAELSPAAKTGKRKRSQMLFRG
With B1 the “extracellular SEAP activity” value [2, 5] was “repressed” and the “EC50 (effective concentration for 50% inhibition)” value ([2]; extracellular SEAP activity, Ava5-EG(Δ4AB)SEAP cells, 72 hours) was “below 10 IU/ml”.
